Results on six compounds are retold here after patent publication US9518018B2, “3-alkoxy, thioalkyl and amino-4-amino-6-(substituted)picolinates and their use as herbicides” (Dow AgroSciences LLC, priority 2011, dated 2016).

Holding throughout (type): in vivo
Assay [1] relates to TRZAS: wheat, spring (Triticum aestivum). Briefly: Post-Emergent Test I herbicidal activity. The following applies: for GR20 TRZAS: Table 4, growth reduction of 20% of plant growth; for GR20 TRZAS / GR50 TRZAS / GR80 TRZAS: 14 days after application, probit analysis; for GR50 TRZAS: Table 4, growth reduction of 50% of plant growth; for GR80 TRZAS: Table 4, growth reduction of 80% of plant growth. The method in brief: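 Greenhouse-grown seedlings (peat-based mix, pH 6.0–6.8; ~15 h photoperiod, 23–29 °C day) were sprayed post-emergence at first/second true-leaf stage with compound in acetone/DMSO/aqueous crop-oil–surfactant carrier at 187 L/ha, using a twofold rate series. Injury was scored visually after 14 d (0–100%); GR20/GR50/GR80 derived by probit analysis.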

For assay [2], the system named is POLCO: buckwheat, wild (Polygonum convolvulus). The experiment in a line: Post-Emergent Test I herbicidal activity. The note with it: for GR20 POLCO: Table 4, growth reduction of 20% of plant growth; for GR20 POLCO / GR50 POLCO / GR80 POLCO: 14 days after application, probit analysis; for GR50 POLCO: Table 4, growth reduction of 50% of plant growth; for GR80 POLCO: Table 4, growth reduction of 80% of plant growth. An outline of the steps: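 Visual injury ratings (0 = none, 100 = complete kill) taken 14 d after treatment, compared with untreated plants, feed probit-derived GR20/GR50/GR80. Application: overhead spray, 187 L/ha, highest rate and ½×-1/16× dilutions in acetone-DMSO-based aqueous spray mix with crop oil and surfactant, onto plants grown 7-21 d to first or second true leaf.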

Assay [3] relates to ECHOR = Echinochloa crus-galli P.B. var. oryzoides (VAS.) OHWI (early watergrass). The experiment in a line: In-water applied herbicidal activity in transplanted paddy rice. The note with it: 21 DAA. The procedure: (§1) Rice seeds were planted in Sun Gro MetroMix 306 planting mixture, which typically has a pH of 6.0 to 6.8 and an organic matter content of about 30 percent, in plastic plug trays. Seedlings at the second or third leaf stage of growth were transplanted into 650 mL of mud contained in 960 mL non-perforated plastic pots with a surface area of 86.59 cm^2 four days prior to herbicide application. The paddy was created by filling the 2.5 to 3 cm headspace of the pots with water. When required to ensure good germination and healthy plants, a fungicide treatment and/or other chemical or physical treatment was applied. The plants were grown for 4-14 d in a greenhouse with an approximate 14-h photoperiod which was maintained at about 29° C. during the day and 26° C. during the night. Nutrients were added as Osmocote (17:6:10, Nitrogen:Phosphorus:Potassium (N:P:K)+minor nutrients) at 2 grams (g) per cup. Water was added on a regular basis to maintain the paddy flood, and supplemental lighting was provided with overhead metal halide 1000-Watt lamps as necessary. The plants were employed for testing when they reached the second or third true leaf stage. Treatments consisted of compounds 45, 34, and 66. For technical grade compounds, a weighed amount, determined by the highest rate to be tested, was placed in an individual 120 mL glass vial and was dissolved in 20 mL of acetone to obtain concentrated stock solutions. […] The concentrated stock solutions obtained were diluted with 20 mL of an aqueous mixture containing 2.5% Agri-dex crop oil concentrate (v/v). Applications were made by injecting an appropriate amount of the stock solution into the aqueous layer of the paddy. Control plants were treated in the same manner with the solvent blank. All treated plant material received the same concentration of acetone and crop oil concentrate. The treated plants and control plants were placed in a greenhouse as described above and water was added as needed to maintain a paddy flood. After approximately 3 weeks, the condition of the test plants, compared with that of the untreated plants, was determined visually and scored on a scale of 0 to 100 percent where 0 corresponds to no injury and 100 corresponds to complete kill. By applying the well-accepted probit analysis as described by J. Berkson in Journal of the […], 48, 565 (1953) and by D. Finney in “Probit Analysis” Cambridge University Press (1952) or by plotting the mean data and fitting a logarithmic curve to the portion of the data where there was a dose response using Microsoft Excel®, the above data can be used to calculate GR50 and GR90 values, which are defined as growth reduction factors that correspond to the effective dose of herbicide required to kill or control 50 percent or 90 percent, respectively, of a target plant.

Assay [4] has as its system FIMMI = Fimbristylis miliacea (L.) VAHL (globe fringerush). The assay is described as above. The following applies: 21 DAA. How it is done:
as §1

Setting [5] is: dose to kill or control 50 percent.
The mark [6] stands for this setting: dose to kill or control 90 percent.

In the case of `COc1c(C(=O)O)nc(-c2ccc(Cl)c(OC)c2F)c(F)c1N` [Compound 45, 4-amino-6-(4-chloro-2-fluoro-3-methoxyphenyl)-5-fluoro-3-methoxypicolinic acid], the “Visual Growth Reduction (%)-14 Days after Application TRZAS” value in assay [1] (Table 4, 8.75 g ai/ha) was determined as 10%; in assay [1] (Table 4, 17.5 g ai/ha), 20%; in assay [1] (Table 4, 35 g ai/ha) it was 55%; in assay [1] (Table 4, 70 g ai/ha) it was 60%; in assay [1] (Table 4, 140 g ai/ha) it was 65%. The “GR20 TRZAS” value in assay [1] is 14.3 g ai/ha. The “GR50 TRZAS” value in assay [1] was 53.5 g ai/ha. Also, the “GR80 TRZAS” value in assay [1] is on record as over 140 g ai/ha. In addition, the “Visual Growth Reduction (%)-14 Days after Application POLCO” value in assay [2] (Table 4, 8.75 g ai/ha) is 100%; in assay [2] (Table 4, 17.5 g ai/ha) it was 100%; in assay [2] (Table 4, 35 g ai/ha) it was 100%; in assay [2] (Table 4, 70 g ai/ha), 100%; in assay [2] (Table 4, 140 g ai/ha), 100%. The “GR20 POLCO” value in assay [2] is reported as under 8.75 g ai/ha. Further, the “GR50 POLCO” value in assay [2] is under 8.75 g ai/ha. Further, in assay [2], the “GR80 POLCO” value was under 8.75 g ai/ha.

In the case of `COc1c(C(=O)O)nc(-c2ccc(Cl)cc2)c(F)c1N` [Compound 47], the “Visual Growth Reduction (%)-14 Days after Application TRZAS” value in assay [1] (Table 4, 8.75 g ai/ha) was 0%; in assay [1] (Table 4, 17.5 g ai/ha), 15%; in assay [1] (Table 4, 35 g ai/ha), 30%; in assay [1] (Table 4, 70 g ai/ha), 45%; in assay [1] (Table 4, 140 g ai/ha) it was 50%. The “GR20 TRZAS” value in assay [1] came out at 30.6 g ai/ha. Besides, the “GR50 TRZAS” value in assay [1] was found to be 98.6 g ai/ha. Moreover, the “GR80 TRZAS” value in assay [1] is given as over 140 g ai/ha. Moreover, the “Visual Growth Reduction (%)-14 Days after Application POLCO” value in assay [2] (Table 4, 8.75 g ai/ha) came out at 100%; in assay [2] (Table 4, 17.5 g ai/ha), 100%; in assay [2] (Table 4, 35 g ai/ha) it was 100%; in assay [2] (Table 4, 70 g ai/ha), 100%; in assay [2] (Table 4, 140 g ai/ha) it was 100%. Further, the “GR20 POLCO” value in assay [2] is on record as under 8.75 g ai/ha. In addition, the “GR50 POLCO” value in assay [2] is under 8.75 g ai/ha. Also, the “GR80 POLCO” value in assay [2] was under 8.75 g ai/ha.

With `COC(=O)c1nc(Cl)cc(N)c1OC` [Compound 1, methyl 4-amino-6-chloro-3-methoxypicolinate], the “Visual Growth Reduction (%)-14 Days after Application TRZAS” value in assay [1] (Table 4, 17.5 g ai/ha) is recorded as 0%; in assay [1] (Table 4, 35 g ai/ha), 0%; in assay [1] (Table 4, 70 g ai/ha), 0%; in assay [1] (Table 4, 140 g ai/ha), 0%; in assay [1] (Table 4, 280 g ai/ha) it was 0%. Moreover, in assay [1], the “GR20 TRZAS” value was over 280 g ai/ha. The “GR50 TRZAS” value in assay [1] is recorded as over 280 g ai/ha. Also, the “GR80 TRZAS” value in assay [1] is reported as over 280 g ai/ha. Also, the “Visual Growth Reduction (%)-14 Days after Application POLCO” value in assay [2] (Table 4, 17.5 g ai/ha) is on record as 100%; in assay [2] (Table 4, 35 g ai/ha), 100%; in assay [2] (Table 4, 70 g ai/ha) it was 100%; in assay [2] (Table 4, 140 g ai/ha), 95%; in assay [2] (Table 4, 280 g ai/ha) it was 100%. Also, the “GR20 POLCO” value in assay [2] is listed as under 17.5 g ai/ha. Also, the “GR50 POLCO” value in assay [2] is on record as under 17.5 g ai/ha. The “GR80 POLCO” value in assay [2] was under 17.5 g ai/ha.

As to `COc1c(C(=O)OCc2ccccc2)nc(-c2ccc(Cl)c(OC)c2F)c(F)c1N` [Compound 66, benzyl 4-amino-6-(4-chloro-2-fluoro-3-methoxyphenyl)-5-fluoro-3-methoxypicolinate], the “Mean Visual Injury (%)-21 Days After Application ECHOR” value in assay [3] (2.19 g ae/ha) turned out to be 0%; in assay [3] (4.38 g ae/ha) it was 0%; in assay [3] (8.75 g ae/ha) it was 8%; in assay [3] (17.5 g ae/ha), 21%; in assay [3] (35 g ae/ha), 89%; in assay [3] (70 g ae/ha), 95%. The “GR50 ECHOR” value in assay [3] (setting [5]) worked out at 21.2 g ae/ha. Besides, in assay [3] (setting [6]), the “GR90 ECHOR” value was 59.0 g ae/ha. Besides, the “Mean Visual Injury (%)-21 Days After Application FIMMI” value in assay [4] (2.19 g ae/ha) amounted to 0%; in assay [4] (4.38 g ae/ha), 10%; in assay [4] (8.75 g ae/ha) it was 36%; in assay [4] (17.5 g ae/ha), 73%; in assay [4] (35 g ae/ha), 100%; in assay [4] (70 g ae/ha) it was 100%. The “GR50 FIMMI” value in assay [4] (setting [5]) was 10.3 g ae/ha. Further, the “GR90 FIMMI” value in assay [4] (setting [6]) was 29.7 g ae/ha.

For the compound `COC(=O)c1nc(-c2ccc(Cl)cc2F)cc(N)c1OC` [Compound 6, Methyl 4-amino-6-(4-chloro-2-fluorophenyl)-3-methoxypicolinate], the “Visual Growth Reduction (%)-14 Days after Application TRZAS” value came to 0% in assay [1] (Table 4, 8.75 g ai/ha); 0% in assay [1] (Table 4, 17.5 g ai/ha); 15% in assay [1] (Table 4, 35 g ai/ha); 45% in assay [1] (Table 4, 70 g ai/ha); 50% in assay [1] (Table 4, 140 g ai/ha). For the same compound, in assay [1], the “GR20 TRZAS” value was 47.5 g ai/ha. Moreover, the “GR50 TRZAS” value in assay [1] is reported as 109 g ai/ha. Also, the “GR80 TRZAS” value in assay [1] is listed as over 140 g ai/ha. Moreover, the “Visual Growth Reduction (%)-14 Days after Application POLCO” value in assay [2] (Table 4, 8.75 g ai/ha) is given as 0%; in assay [2] (Table 4, 17.5 g ai/ha) it was 100%; in assay [2] (Table 4, 70 g ai/ha) it was 100%; in assay [2] (Table 4, 140 g ai/ha) it was 100%. In addition, in assay [2], the “GR20 POLCO” value worked out at 10.7 g ai/ha. Moreover, the “GR50 POLCO” value in assay [2] is 12.4 g ai/ha. Moreover, in assay [2], the “GR80 POLCO” value is given as 14.3 g ai/ha.

In the case of `COc1c(N)cc(-c2ccc(Cl)cc2)nc1C(=O)O` [Compound 46], the “Visual Growth Reduction (%)-14 Days after Application TRZAS” value is reported as 15% in assay [1] (Table 4, 17.5 g ai/ha); 20% in assay [1] (Table 4, 35 g ai/ha); 40% in assay [1] (Table 4, 70 g ai/ha); 70% in assay [1] (Table 4, 140 g ai/ha); 75% in assay [1] (Table 4, 280 g ai/ha). Also, the “GR20 TRZAS” value in assay [1] is listed as 27.1 g ai/ha. The “GR50 TRZAS” value in assay [1] stood at 91.7 g ai/ha. The “GR80 TRZAS” value in assay [1] came out at 310 g ai/ha. Also, the “Visual Growth Reduction (%)-14 Days after Application POLCO” value amounted to 80% in assay [2] (Table 4, 17.5 g ai/ha); 90% in assay [2] (Table 4, 35 g ai/ha); 100% in assay [2] (Table 4, 70 g ai/ha); 100% in assay [2] (Table 4, 140 g ai/ha); 100% in assay [2] (Table 4, 280 g ai/ha). Besides, in assay [2], the “GR20 POLCO” value is under 17.5 g ai/ha. The “GR50 POLCO” value in assay [2] is given as under 17.5 g ai/ha. For the same compound, in assay [2], the “GR80 POLCO” value was 18.6 g ai/ha.
